What is called IC50 is the concentration at which inhibition is half-maximal.

Read-outs that look alike come from different tables or passages of the source.

Assay [1] relates to pentobarbital-anesthetized dog. Briefly: In Vivo Myocardial Inotropic Activity in Anesthetized Dog (CVAD). As to conditions: for change in vivo at 0.01 mg/kg / change in vivo at 0.31 mg/kg / change in vivo at 1 mg/kg / change in vivo at 0.03 mg/kg / change in vivo at 0.1 mg/kg / change in vivo at 0.3 mg/kg / change in vivo at 3.1 mg/kg: Canis lupus familiaris, iv; for change in vivo at 0.3 mg/kg: Test 1, 0.30 mg/kg IV; for change in vivo at 3.1 mg/kg: 3.10 mg/kg IV. On the set-up: species or system dog (adult mongrel). As to the method: This test procedure is described in the following paragraphs.
This screen consists of determining the effects of increasing intravenous doses of compound on mycardial contractility (dP/dt max of left ventricular blood pressure), heart rate, and aortic blood pressure of the pentobarbital-anesthetized dog.
Adult mongrel dogs of either sex are anesthetized with pentobarbital, 35 mg/kg, IV, and are subsequently maintained under anesthesia with a continuous infusion of pentobarbital, 3.5 mg/kg/hour. The trachea is intubated but the animals are permitted to breathe spontaneously. A cannula is inserted into the femoral vein for administrating test agents. A Millar catheter tip pressure transducer or a fluid filled catheter is inserted into the ascending aorta via the femoral artery for measuring aortic blood pressure. A Millar catheter tip pressure transducer is passed into the left ventricle via the left carotid artery for measuring left ventricular blood pressure. Needle electrodes are placed subcutaneously for recording a lead II electrocardiogram (ECG).
Left ventricular and aortic blood pressures are recorded on a strip chart recorder. Heart rate, using a biotachometer triggered from the R wave of the ECG, and the first derivative of left ventricular blood pressure (dP/dt), obtained with a differentiator amplifier coupled to the corresponding pressure amplifier, are also recorded. A period of at least 30 minutes is utilized to obtain control data prior to administration of test compound.
Ethanol or dimethylacetamide can be used as solvents if adequate dilutions can be made. Appropriate vehicle controls are administered when needed.
Each dose of the test compound is administered in a volume of […] over a period of one minute.

A further assay addresses T1, adenosine A1 receptor (Rattus norvegicus, UniProt P25099).
T1 construct: Whole brain minus cerebellum and brainstem from male Long Evans rats; from tissue; host or cells: whole brain minus cerebellum and brainstem, male Long Evans rats (membranes)
T1 sequence (P25099 1-326): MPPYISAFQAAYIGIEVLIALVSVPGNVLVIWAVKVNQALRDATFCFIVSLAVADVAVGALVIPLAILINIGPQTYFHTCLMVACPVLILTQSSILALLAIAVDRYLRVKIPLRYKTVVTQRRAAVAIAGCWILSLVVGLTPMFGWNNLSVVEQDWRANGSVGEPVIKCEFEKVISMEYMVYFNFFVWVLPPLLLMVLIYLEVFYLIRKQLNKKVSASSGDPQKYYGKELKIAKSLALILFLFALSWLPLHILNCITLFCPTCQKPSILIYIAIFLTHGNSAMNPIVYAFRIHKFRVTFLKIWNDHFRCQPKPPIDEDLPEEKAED
Briefly: Adenosine Receptor Binding - A1 Receptor Affinity (RBA1), [3H]-N6-cyclohexyladenosine displacement. The note with it: [3H]-CHA 1.0 nM, rat brain membranes, 25° C., one hour; read-out: RBA-1, IC50 for adenosine A1 receptor affinity. As to the method:
Whole brain minus cerebellum and brainstem from male Long Evans rats (150-200 g) was homogenized in 30 volumes of ice-cold 0.05M Tris-HCl buffer pH 7.7 using a Brinkman Polytron PT-10, (setting number 6 for 20 seconds) and centrifuged for ten minutes at 20,000×g (Sorvall RC-2), 4° C. The supernatant was discarded, and the pellet was resuspended and centrifuged as before. […] The homogenate was again centrifuged, and the final pellet was resuspended in ice-cold 0.05 M Tris-HCl buffer pH 7.7 to a concentration of 20 mg/ml original wet tissue weight and used immediately. […] Incubation volume was 2 ml. […] The filters were rinsed three times with 5 ml of ice cold 0.05 M Tris-HCl buffer pH 7.7. The radio-labeled ligand retained on the filter was measured by liquid scintillation spectrophotometry after shaking the filters for one hour or longer on a mechanical shaker in 10 ml of Beckman Ready-Solv HP scintillation cocktail. […] The Hill coefficient was calculated by linear regression of the line obtained by plotting the log of the bound radioligand vs the log of the [formula] The maximal number of binding sites (Bmax) was calculated from the Scatchard plot.

In a further assay the test system is Type 1 Phosphodiesterase. Briefly: Phosphodiesterase (PDE) Inhibition, Type 1 Phosphodiesterase. The assay is classed as biochemical, bovine (coronary arteries). The note with it: Type 1 PDE, at 10^-5 M; for % Inhibition of hydrolysis of 3H-cAMP: substrate 3H-cAMP 1.0 μM; for % Inhibition of hydrolysis of 3H-cGMP: substrate 3H-cGMP 1.0 μM. From the text:
(§1) The method of Thompson, et al (Thompson, W. J., Terasaki, W. L., Epstein, P. M., Strada, S. J., Adv. Cyclic Nucleotide Res., 10:69-92, 1979), with minor modifications, was used to isolate phosphodiesterases from vascular smooth muscle. Bovine coronary arteries (right, anterior descending, and left circumflex arteries) from hearts obtained from a local slaughterhouse were used for these studies. Arteries from two hearts were used for each isolation. Hearts were kept on ice and the arteries were dissected within two hours after the animals were sacrificed. After removing all fat and connective tissue, the arteries were everted, cut into cubes with a single edge razor blade and homogenized with a Brinkman Polytron three times at a rheostat setting of 10.0 in four volumes of the PDE isolation buffer (10 mM Tris-HCl/pH 7.5, 2 mM MgCl2, and 1 mM dithiothreitol). The resulting homogenate was sonicated (30 sec/ml homogenate) and then centrifuged at 30,000 xg for 20 minutes. This and all subsequent procedures were performed at 4° C. The resulting supernatant was filtered through four layers of gauze, and applied to a DEAE-cellulose column (30×1.5 cm), prepared as described by Cheung (Cheung, W. Y., Biochim. Biophys. Acta, 191:303-315, 1969), and equilibrated with freshly prepared 70 mM sodium acetate/5 mM 2-mercaptoethanol (pH 6.5). The column was then washed with 2-3 bed volumes of sodium acetate/2-mercaptoethanol, after which the phosphodiesterases were eluted from the column using a continuous 70-1,000 mM sodium acetate gradient (pH 6.5, containing 5 mM 2-mercaptoethanol; total volume 400 ml). The flow rate was approximately equal to 25 ml/hr. Eight ml fractions were collected and assayed for cyclic AMP- and cyclic GMP-phosphodiesterase activity in the presence and absence of 0.1 units of calmodulin and 10 mM CaCl2. Appropriate fractions were pooled and dialyzed against 70 mM sodium acetate/5 mM 2-mercaptoethanol for 20 hours.
(§2) Following complete separation, the combined phosphodiesterase fractions were concentrated to 14% of the original volume using an Amicon ultrafiltration cell fitted with a UM-10 membrane, according to the method of Wells, et al (Wells, J. N., Baird, C. E., Wu, Y. J., Hardman, J. G., Biochim. Biophys. Acta, 384:430-442, 1975). Following concentration, the protein was then diluted to 65% with ethylene glycol monoethyl ether, and stored at -20° C.
(§3) Phosphodiesterase activity was measured as described previously (Weishaar, P. E., Quade, M., Boyd, D., Schenden, J., Mark, S. S., Kaplan, H. R., Drug Devel. Res., 3:517-534, 1983), in a reaction medium containing 40 mM Tris-HCl (pH 8.0), 5 mM MgCl and 4 mM 2-mercaptoethanol. Unless otherwise noted, the concentration of substrate (^3 H-cyclic AMP or ^3 H-cyclic GMP) was 1.0 μM. All agents examined were dissolved in dimethyl sulfoxide (DMSO). Final concentration of the reaction medium was either 2.5% (cardiac and platelet studies) or 1.25% (smooth muscle studies). This concentration of DMSO produced an approximately 10% inhibition of enzyme activity.

In a further assay the test system is Type 3 Phosphodiesterase. Briefly: Phosphodiesterase (PDE) Inhibition, Type 3 Phosphodiesterase. The assay is classed as biochemical, bovine (coronary arteries). As to conditions: Type 3 PDE, at 10^-5 M, substrate 3H-cAMP 1.0 μM.
Description: as §1, §2, §3

[2] abbreviates: 0.31 mg/kg IV, read-out: Percent Change Heart Rate.
The mark [3] stands for this setting: 0.31 mg/kg IV, read-out: Percent Change Myocardial Contractility.
The mark [4] stands for this setting: 1.00 mg/kg IV, read-out: Percent Change Heart Rate.
Where [5] appears, read: 1.00 mg/kg IV, read-out: Percent Change Myocardial Contractility.
Setting [6] is: read-out: Percent Change Heart Rate.
The mark [7] stands for this setting: read-out: Percent Change Myocardial Contractility.

As to `COc1cc(OC)cc(-c2nc3c(C)nn(C)c3c(=O)[nH]2)c1` [Example 23, 1,3-Dimethyl-5-(3,5-dimethoxyphenyl)pyrazolo[4,3-d]-pyrimidine-7-one], the “Percent Change Blood Pressure” value in assay [1] (0.01 mg/kg IV) is 2/2; in assay [1] (0.31 mg/kg IV) it was 3/4. Further, the change in vivo at 0.01 mg/kg in assay [1] (0.01 mg/kg IV, read-out: Percent Change Heart Rate) turned out to be 1%; in assay [1] (0.01 mg/kg IV, read-out: Percent Change Myocardial Contractility), 5%. The change in vivo at 0.31 mg/kg was 3% in assay [1] (setting [2]) and 15% in assay [1] (setting [3]). In addition, the change in vivo at 1 mg/kg in assay [1] (setting [4]) turned out to be 6%; in assay [1] (setting [5]), 22%.

Take `CCn1nc(C)c2nc(Cc3ccccc3)[nH]c(=O)c21` [Example 22]: the IC50 at adenosine A1 receptor was found to be 8.2 µM. For the same molecule, the change in vivo at 0.01 mg/kg in assay [1] (Test 1, 0.01 mg/kg IV, read-out: Percent Change Heart Rate) was -1%; in assay [1] (Test 1, 0.01 mg/kg IV, read-out: Percent Change Myocardial Contractility) it was 11%; in assay [1] (Test 2, 0.01 mg/kg IV, read-out: Percent Change Heart Rate) it was -14%; in assay [1] (Test 2, 0.01 mg/kg IV, read-out: Percent Change Myocardial Contractility), -12%. The change in vivo at 0.03 mg/kg in assay [1] (Test 1, 0.03 mg/kg IV, read-out: Percent Change Heart Rate) is -1%; in assay [1] (Test 1, 0.03 mg/kg IV, read-out: Percent Change Myocardial Contractility) it was 12%; in assay [1] (Test 2, 0.03 mg/kg IV, read-out: Percent Change Heart Rate), -17%; in assay [1] (Test 2, 0.03 mg/kg IV, read-out: Percent Change Myocardial Contractility) it was -13%. Further, the change in vivo at 0.1 mg/kg is -4% in assay [1] (Test 1, 0.10 mg/kg IV, read-out: Percent Change Heart Rate); 17% in assay [1] (Test 1, 0.10 mg/kg IV, read-out: Percent Change Myocardial Contractility); -21% in assay [1] (Test 2, 0.10 mg/kg IV, read-out: Percent Change Heart Rate); -15% in assay [1] (Test 2, 0.10 mg/kg IV, read-out: Percent Change Myocardial Contractility). Besides, the change in vivo at 0.3 mg/kg in assay [1] (setting [6]) was -10%; in assay [1] (setting [7]) it was 6%. Further, the change in vivo at 1 mg/kg in assay [1] (Test 1, 1.00 mg/kg IV, read-out: Percent Change Heart Rate) is -12%; in assay [1] (Test 1, 1.00 mg/kg IV, read-out: Percent Change Myocardial Contractility), 14%; in assay [1] (Test 2, 1.00 mg/kg IV, read-out: Percent Change Heart Rate), -11%; in assay [1] (Test 2, 1.00 mg/kg IV, read-out: Percent Change Myocardial Contractility) it was 2%. Moreover, the change in vivo at 0.31 mg/kg in assay [1] (Test 2, 0.31 mg/kg IV, read-out: Percent Change Heart Rate) is -22%; in assay [1] (Test 2, 0.31 mg/kg IV, read-out: Percent Change Myocardial Contractility), -14%. For the same molecule, in assay [1] (Test 1, 0.01 mg/kg IV), the “Percent Change Blood Pressure” value is on record as 1/0.

As for `Cc1nn(C)c2c(=O)[nH]c(-c3ccc(Cl)cc3[N+](=O)[O-])nc12` [Example 18, 1,3-Dimethyl-5-(2-nitro-4-chlorophenyl)pyrazolo-[4,3-d]pyrimidine-7-one], the IC50 at adenosine A1 receptor was determined as 8.5 µM. Further, in the assay with Type 1 Phosphodiesterase, the “% Inhibition of hydrolysis of 3H-cAMP” value is 7% and the “% Inhibition of hydrolysis of 3H-cGMP” value is 5%. The “% Inhibition of hydrolysis of 3H-cAMP” value with Type 3 Phosphodiesterase came to 7%.

Turning to `Cc1nn(C)c2c(=O)[nH]c(-c3ccc(S(=O)(=O)NCCN(C)C)cc3)nc12` [Example 21], the IC50 at adenosine A1 receptor came to 0.684 µM.

Take `Cc1nn(C)c2c(=O)[nH]c(-c3ccc(Cl)cc3N)nc12` [Example 19, 1,3-Dimethyl-5-(2-amino-4-chlorophenyl)pyrazolo[4,3-d]pyrimidine-7-one]: the IC50 on adenosine A1 receptor was determined as 0.314 µM. Also, in the assay on Type 1 Phosphodiesterase, the “% Inhibition of hydrolysis of 3H-cAMP” value is 16% and the “% Inhibition of hydrolysis of 3H-cGMP” value was found to be 12%. Moreover, the “% Inhibition of hydrolysis of 3H-cAMP” value in the assay with Type 3 Phosphodiesterase is recorded as 5%.

As for `Cc1nn(C)c2c(O)nc(-c3ccc(S(=O)(=O)O)cc3)nc12` [Example 20, 1,3-Dimethyl-5-(4-sulfoacid phenyl)pyrazolo[4,3-d]pyrimidine-7-one], on adenosine A1 receptor, the IC50 turned out to be 13 µM.

For the molecule `COc1ccccc1-c1nc2c(C)nn(C)c2c(=O)[nH]1` [Example 14], the IC50 on adenosine A1 receptor came out at 10 µM. The change in vivo at 0.1 mg/kg is 2% in assay [1] (0.10 mg/kg IV, read-out: Percent Change Heart Rate) and 2% in assay [1] (0.10 mg/kg IV, read-out: Percent Change Myocardial Contractility). Further, the change in vivo at 0.31 mg/kg in assay [1] (setting [2]) and in assay [1] (setting [3]) was 4% throughout. Besides, the change in vivo at 1 mg/kg was 14% in assay [1] (setting [4]) and 10% in assay [1] (setting [5]). The change in vivo at 3.1 mg/kg amounted to 27% in assay [1] (setting [6]) and 34% in assay [1] (setting [7]).

The values above are taken from patent US4666908A, “5-Substituted pyrazolo[4,3-d]pyrimidine-7-ones and methods of use” (Warner-Lambert Company, priority 1985, dated 1987).
